Source: article PMC11481577, “Allosteric coupling of substrate binding and proton translocation in MmpL3 transporter from Mycobacterium tuberculosis” (mBio, 2024)

How the values were obtained:
MmpL3ΔC D58A [1] = target: T1, MmpL3ΔC D58A (Mycobacterium tuberculosis, UniProt P9WJV5, D58A); format: biochemical
MmpL3ΔC [2] = target: T2, MmpL3ΔC (Mycobacterium tuberculosis, UniProt P9WJV5); format: biochemical
MmpL3ΔC S66A [3] = target: T3, MmpL3ΔC S66A (Mycobacterium tuberculosis, UniProt P9WJV5, S66A); format: biochemical
MmpL3ΔC D58A [4] = target: T1, MmpL3ΔC D58A; format: biochemical; remark: listed apart in the source
MmpL3ΔC H68A = MmpL3ΔC H68A (Mycobacterium tuberculosis, UniProt P9WJV5, H68A); format: biochemical
MmpL3ΔC D139A [5] = target: T4, MmpL3ΔC D139A (Mycobacterium tuberculosis, UniProt P9WJV5, D139A); format: biochemical
MmpL3ΔC [6] = target: T2, MmpL3ΔC; format: biochemical; remark: listed apart in the source
MmpL3ΔC [7] = target: T2, MmpL3ΔC; format: biochemical; remark: listed apart in the source
MmpL3ΔC S66A [8] = target: T3, MmpL3ΔC S66A; format: biochemical; remark: listed apart in the source
MmpL3ΔC D139A [9] = target: T4, MmpL3ΔC D139A; format: biochemical; remark: listed apart in the source
[10] = system: MsmgΔmmpL3/pMVGH1-mmpL3tb (D58A); format: cell-based; conditions: disc with 5 µg, 7H11-ADC agar, 4 days at 37°C

Row | SMILES | Rate of fluorescence change (lipid transport activity) (MmpL3ΔC D58A [1]) | Effect on H+ transfer activity (in words) (MmpL3ΔC [2]) | Effect on remaining lipid transfer activity (in words) (MmpL3ΔC S66A [3]) | Rate of fluorescence change (lipid transport activity) (MmpL3ΔC S66A [3]) | Effect on H+ transfer activity (in words) (MmpL3ΔC D58A [4]) | Rate of fluorescence change (lipid transport activity) (MmpL3ΔC H68A) | Rate of fluorescence change (lipid transport activity) (MmpL3ΔC D139A [5]) | Rate of fluorescence change (lipid transport activity) (MmpL3ΔC [6]) | Effect on asymmetry of NBD-PE lipid distribution in proteoliposomes (flippase activity) (MmpL3ΔC [7]) | Stimulation of the variant by ligand (in words) (MmpL3ΔC S66A [8]) | Effect on H+ transfer activity (in words) (MmpL3ΔC D139A [9]) | Susceptibility to growth inhibition (zone of inhibition) compared with cells producing WT Mtb MmpL3 [10]
1 | CCCCCCCCCCCCCCCC(=O)OC[C@H]1O[C@H](O[C@H]2O[C@H](CO)[C@@H](O)[C@H](O)[C@H]2O)[C@H](O)[C@@H](O)[C@@H]1O [Tre-C16] | 11.53 RU/s/µM protein | strongly stimulated | inhibited | -0.02 RU/s/µM protein | stimulated | -0.62 RU/s/µM protein | 13.43 RU/s/µM protein | 1.32 RU/s/µM protein | unaffected | no significant stimulation | stimulated by Tre-C16 even more strongly than the parent protein | 
2 | OC[C@H]1O[C@H](O[C@H]2O[C@H](CO)[C@@H](O)[C@H](O)[C@H]2O)[C@H](O)[C@@H](O)[C@@H]1O [trehalose] | 7.22 RU/s/µM protein | weakly | inhibited | 1.20 RU/s/µM protein | weakly | 0.37 RU/s/µM protein | 18.84 RU/s/µM protein | 2.96 RU/s/µM protein | unaffected | no significant stimulation |  | 
3 | CC(C)=CCC/C(C)=C/CNCCNC1C2CC3CC(C2)CC1C3 (centres unmarked) [SQ109] | 10.7 RU/s/µM protein |  | inhibited | -0.15 RU/s/µM protein |  | -0.12 RU/s/µM protein | 2.52 RU/s/µM protein | 2.04 RU/s/µM protein | unaffected |  |  | less susceptible
